ChEMBL document CHEMBL1201862, “PubChem BioAssay data set” (2004)
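48-hour exposure; five concentrations; linearly interpolated endpoints. At the GI50, growth is halved.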 Calls of active or inactive are those of the source. No stated cut-off is given here; in the data, active = GI50 up to about 1.1 µM and inactive = higher.

Key:
Test in all cases: NCI anticancer screen, dose series, 48 h
EKVX = test system: EKVX
HT-29 = test system: HT-29
RXF 393 = test system: RXF 393
LOX IMVI = test system: LOX IMVI
CAKI-1 = test system: CAKI-1
SNB-78 = test system: SNB-78
K562 = test system: K562
Malme-3M = test system: Malme-3M
SNB-19 = test system: SNB-19
SF-539 = test system: SF-539
HCT-15 = test system: HCT-15
SK-MEL-2 = test system: SK-MEL-2
UO-31 = test system: UO-31
OVCAR-3 = test system: OVCAR-3
HOP-92 = test system: HOP-92
BT-549 = test system: BT-549
MCF7 = test system: MCF7
MDA-N = test system: MDA-N
SR = test system: SR
T47D = test system: T47D

Measured: GI50

Nc1c2ccccc2nc2c(C(=O)Nc3ccc(S(N)(=O)=O)cc3)cccc12
inactive: EKVX > 100 µM | HT-29 > 100 µM | RXF 393 > 100 µM | LOX IMVI 40.1 µM | CAKI-1 > 100 µM | SNB-78 > 100 µM | K562 28.6 µM | Malme-3M 74 µM | SNB-19 92.3 µM | SF-539 13.2 µM | SK-MEL-2 > 100 µM | UO-31 46.3 µM | OVCAR-3 33.7 µM
> 100 µM: HCT-15

O=C1C[C@H]2CCCN2[C@@H](c2ccccc2)C1
inactive: EKVX > 100 µM | HT-29 > 100 µM | RXF 393 > 100 µM | LOX IMVI > 100 µM | CAKI-1 > 100 µM | SNB-78 > 100 µM | K562 > 100 µM | Malme-3M > 100 µM | SNB-19 > 100 µM | SF-539 > 100 µM | SK-MEL-2 > 100 µM | UO-31 > 100 µM | HOP-92 > 100 µM | OVCAR-3 > 100 µM
> 100 µM: HCT-15

CCc1ccccc1NC(=O)/C(=N/O)C(C)=O
> 100 µM: HCT-15
inactive: EKVX > 100 µM | HT-29 > 100 µM | RXF 393 > 100 µM | LOX IMVI > 100 µM | CAKI-1 > 100 µM | SNB-78 > 100 µM | K562 > 100 µM | Malme-3M > 100 µM | SNB-19 > 100 µM | SF-539 > 100 µM | SK-MEL-2 > 100 µM | UO-31 > 100 µM | OVCAR-3 > 100 µM

COc1cc(CCCC(O)COc2cccc3c2C2(O)CCCCCC32)cc(OC)c1 (centres undefined)
17.6 µM: HCT-15
inactive: EKVX 16 µM | HT-29 7.26 µM | RXF 393 24.8 µM | CAKI-1 20.8 µM | SNB-78 20.7 µM | K562 11.6 µM | Malme-3M 16 µM | SNB-19 17.8 µM | SF-539 13.4 µM | SK-MEL-2 20.7 µM | UO-31 15.4 µM | HOP-92 4.75 µM

CN(C)c1cc2ccccc2oc1=O
inactive: EKVX > 100 µM | BT-549 > 100 µM | HT-29 > 100 µM | RXF 393 20.6 µM | LOX IMVI > 100 µM | CAKI-1 > 100 µM | MCF7 > 100 µM | K562 > 100 µM | Malme-3M > 100 µM | MDA-N > 100 µM | SNB-19 > 100 µM | SF-539 > 100 µM | SK-MEL-2 > 100 µM | UO-31 > 100 µM | HOP-92 > 100 µM | SR > 100 µM | T47D > 100 µM | OVCAR-3 > 100 µM
> 100 µM: HCT-15

CC(=O)NC1CONC1=O (centres undefined)
inactive: EKVX > 100 µM | BT-549 > 100 µM | HT-29 > 100 µM | RXF 393 > 100 µM | LOX IMVI > 100 µM | CAKI-1 > 100 µM | MCF7 > 100 µM | K562 > 100 µM | Malme-3M > 100 µM | MDA-N > 100 µM | SNB-19 > 100 µM | SF-539 > 100 µM | SK-MEL-2 > 100 µM | UO-31 > 100 µM | HOP-92 > 100 µM | SR > 100 µM | T47D > 100 µM | OVCAR-3 > 100 µM
> 100 µM: HCT-15

CC(C)(C)c1ccc(-c2nc3ccccc3c(=O)o2)cc1
37.5 µM: HCT-15
inactive: EKVX 30.7 µM | BT-549 24.2 µM | HT-29 42 µM | RXF 393 95.9 µM | LOX IMVI 18.7 µM | CAKI-1 86.3 µM | MCF7 27.7 µM | K562 35.6 µM | Malme-3M 35.8 µM | MDA-N 41.2 µM | SNB-19 43.1 µM | SF-539 40.6 µM | SK-MEL-2 22.8 µM | UO-31 43.1 µM | HOP-92 28 µM | SR 22.5 µM | T47D 39.8 µM | OVCAR-3 24.5 µM

COc1cc(C2c3cc4c(cc3OC3(OC)COC(=O)C23)OCO4)cc(OC)c1OC (centres undefined)
inactive: BT-549 1.7 µM | SNB-19 1.64 µM | HOP-92 3.22 µM | T47D > 100 µM
active: EKVX 0.343 µM | HT-29 0.274 µM | RXF 393 0.142 µM | LOX IMVI 0.188 µM | CAKI-1 0.568 µM | MCF7 0.292 µM | K562 0.23 µM | Malme-3M 0.605 µM | MDA-N 0.075 µM | SF-539 0.197 µM | SK-MEL-2 0.771 µM | UO-31 0.675 µM | SR 0.272 µM | OVCAR-3 0.282 µM
0.286 µM: HCT-15

CN(C)CCNc1ccc(C(=O)NCCCN(C)CCCNC(=O)c2ccc(NCCN(C)C)c3c(=O)c4ccccc4[nH]c23)c2[nH]c3ccccc3c(=O)c12
active: EKVX 0.478 µM | BT-549 0.144 µM | HT-29 < 0.01 µM | RXF 393 0.0809 µM | LOX IMVI < 0.01 µM | MCF7 < 0.01 µM | K562 0.0332 µM | Malme-3M 0.0467 µM | MDA-N 0.0346 µM | SNB-19 < 0.0118 µM | SF-539 < 0.01 µM | SK-MEL-2 0.0489 µM | HOP-92 0.0724 µM | SR < 0.01 µM | T47D 0.119 µM | OVCAR-3 0.469 µM
inactive: CAKI-1 5.6 µM | UO-31 1.27 µM
3.81 µM: HCT-15

CC(=O)OC1=CC2=CC[C@H]3[C@@H]4CCC(=O)[C@@]4(C)CC(=O)[C@]3(S)[C@@]2(C)CC1
34.2 µM: HCT-15
inactive: EKVX > 100 µM | BT-549 35 µM | HT-29 > 100 µM | RXF 393 18.7 µM | LOX IMVI 18.8 µM | CAKI-1 35.2 µM | MCF7 30.6 µM | K562 25.1 µM | Malme-3M 22.8 µM | MDA-N 31.7 µM | SNB-19 79.8 µM | SF-539 20 µM | SK-MEL-2 47.1 µM | UO-31 51.1 µM | HOP-92 24.8 µM | SR 23.6 µM | T47D 34.8 µM | OVCAR-3 22.7 µM

Cc1cc(S(=O)(=O)Nc2nc(N)n[nH]2)c(SCC(=O)O)cc1Cl
inactive: EKVX > 10 µM | BT-549 > 10 µM | HT-29 > 10 µM | RXF 393 > 10 µM | LOX IMVI > 10 µM | CAKI-1 > 10 µM | MCF7 > 10 µM | K562 > 10 µM | Malme-3M > 10 µM | MDA-N > 10 µM | SNB-19 > 10 µM | SF-539 > 10 µM | SK-MEL-2 > 10 µM | UO-31 > 10 µM | HOP-92 > 10 µM | SR > 10 µM | T47D > 10 µM | OVCAR-3 > 10 µM
> 10 µM: HCT-15

Cc1nc(O)nc2nc3ccc(Cl)cc3c(N(CCO)CCO)c12
inactive: BT-549 > 100 µM | HT-29 > 100 µM | RXF 393 73.6 µM | LOX IMVI > 100 µM | CAKI-1 96.2 µM | MCF7 > 100 µM | K562 85.7 µM | Malme-3M > 100 µM | MDA-N > 100 µM | SNB-19 > 100 µM | SF-539 > 100 µM | SK-MEL-2 > 100 µM | UO-31 73.6 µM | HOP-92 > 100 µM | SR > 100 µM | T47D > 100 µM | OVCAR-3 > 100 µM
active: EKVX 0.762 µM
94.4 µM: HCT-15

O=C(O)c1cnccc1-c1cc(=O)[nH]n1-c1ccccc1
inactive: EKVX > 53.1 µM | BT-549 > 80.5 µM | HT-29 21.4 µM | RXF 393 98.6 µM | LOX IMVI 6.76 µM | CAKI-1 15.4 µM | MCF7 43.2 µM | K562 10 µM | Malme-3M > 100 µM | MDA-N 41.8 µM | SNB-19 > 100 µM | SF-539 35.6 µM | SK-MEL-2 > 63.2 µM | UO-31 27.9 µM | HOP-92 > 53.2 µM | SR 11.3 µM | T47D 23.5 µM | OVCAR-3 > 43.9 µM
25.9 µM: HCT-15

CC1CCCP(=O)(c2ccccc2)CCC1 (centres undefined)
> 100 µM: HCT-15
inactive: EKVX > 100 µM | HT-29 > 100 µM | RXF 393 > 100 µM | LOX IMVI > 100 µM | CAKI-1 > 100 µM | SNB-78 > 100 µM | K562 > 100 µM | Malme-3M > 100 µM | SNB-19 > 100 µM | SF-539 > 100 µM | SK-MEL-2 > 100 µM | UO-31 > 100 µM | OVCAR-3 > 100 µM

NC(=O)c1cccc(/N=c2\oc3ccc(Br)cc3cc2-c2nc3ccccc3[nH]2)c1
12.7 µM: HCT-15
inactive: EKVX 13.9 µM | BT-549 13.6 µM | HT-29 15.8 µM | RXF 393 22 µM | LOX IMVI 16.1 µM | CAKI-1 18 µM | MCF7 12.9 µM | K562 18.8 µM | Malme-3M 22.5 µM | MDA-N 17.7 µM | SNB-19 14.8 µM | SF-539 2.49 µM | SK-MEL-2 19.9 µM | UO-31 7.76 µM | HOP-92 19 µM | SR 5.73 µM | T47D 10 µM | OVCAR-3 16.2 µM

O=C(c1ccccc1)C1C(c2ccccc2[N+](=O)[O-])N1C1CCCCC1 (centres undefined)
3.52 µM: HCT-15
active: SR 0.634 µM
inactive: EKVX 13.7 µM | BT-549 11.6 µM | HT-29 4.1 µM | RXF 393 4.27 µM | LOX IMVI 2.1 µM | CAKI-1 3.44 µM | MCF7 3.65 µM | K562 2.79 µM | Malme-3M 12.4 µM | MDA-N 2.06 µM | SNB-19 16.3 µM | SF-539 2.1 µM | SK-MEL-2 5.21 µM | UO-31 6.61 µM | HOP-92 3.5 µM | T47D 2.51 µM | OVCAR-3 2.5 µM
